Laboratory results from patent US20190202840A1, “SALTS OF (S)-7-(1-(9H-PURIN-6-YLAMINO)ETHYL)-6-(3-FLUOROPHENYL)-3-METHYL-5H-THIAZOLO[3,2-A]PYRIMIDIN-5-ONE” (Incyte Corporation, priority 2015, published 2019).

What was measured:
human JAK1 = target: T1, human JAK1 (Homo sapiens, UniProt P23458); assay: In vitro JAK kinase assay (Example G, HTRF), JAK1; type: biochemical; details: 1 mM ATP
T1 construct: human JAK1 (a.a. 837-1142); made in house; host or cells: insect cells (baculovirus)

human JAK2 = target: T2, human JAK2 (Homo sapiens, UniProt O60674); assay: In vitro JAK kinase assay (Example G, HTRF), JAK2; type: biochemical; details: ratio of IC50s JAK2 over JAK1, 1 mM ATP
T2 construct: JAK2 (a.a. 828-1132); made in house; host or cells: insect cells (baculovirus)
T2 sequence (O60674 828-1132): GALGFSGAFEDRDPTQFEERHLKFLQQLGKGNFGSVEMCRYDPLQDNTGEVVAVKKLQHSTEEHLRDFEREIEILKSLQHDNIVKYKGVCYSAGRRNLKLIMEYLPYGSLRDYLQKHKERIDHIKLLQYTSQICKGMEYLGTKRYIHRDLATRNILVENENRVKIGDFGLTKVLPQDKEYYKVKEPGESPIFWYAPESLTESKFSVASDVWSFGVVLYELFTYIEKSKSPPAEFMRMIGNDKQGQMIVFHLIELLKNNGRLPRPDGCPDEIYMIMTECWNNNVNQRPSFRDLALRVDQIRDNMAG

T1 sequence (P23458 849-1154): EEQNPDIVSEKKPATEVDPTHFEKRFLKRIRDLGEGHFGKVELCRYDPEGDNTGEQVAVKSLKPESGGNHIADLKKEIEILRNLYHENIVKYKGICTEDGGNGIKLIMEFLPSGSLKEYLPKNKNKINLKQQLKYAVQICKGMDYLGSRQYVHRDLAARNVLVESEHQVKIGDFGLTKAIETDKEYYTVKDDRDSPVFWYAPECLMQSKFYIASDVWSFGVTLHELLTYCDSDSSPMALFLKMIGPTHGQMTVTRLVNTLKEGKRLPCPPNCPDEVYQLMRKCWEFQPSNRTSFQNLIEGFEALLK

Row | IC50 (human JAK1) | JAK2/JAK1 (human JAK2) | Compound
1 | < 10 nM | >10 | N#CCC(C1CCN(c2cccc(Cl)n2)C1)n1cc(-c2ncnc3[nH]ccc23)cn1 (single isomer, unassigned) [Compound 3, 3-[1-(6-chloropyridin-2-yl)pyrrolidin-3-yl]-3-[4-(7H-pyrrolo[2,3-d]pyrimidin-4-yl)-1H-pyrazol-1-yl]propanenitrile]
2 | < 100 nM | >10 | C[C@@H](O)c1nc2cnc3ccsc3c2n1[C@H]1CC[C@H](CC#N)OC1 [Compound 1, ((2R,5S)-5-{2-[(1R)-1-hydroxyethyl]-1H-imidazo[4,5-d]thieno[3,2-b]pyridin-1-yl}tetrahydro-2H-pyran-2-yl)acetonitrile]
3 | < 10 nM | >10 | N#CCC(C1CCN(c2nc3cccnc3o2)C1)n1cc(-c2ncnc3[nH]ccc23)cn1 (centres unmarked) [Compound 4, 3-(1-[1,3]oxazolo[5,4-b]pyridin-2-ylpyrrolidin-3-yl)-3-[4-(7H-pyrrolo[2,3-d]pyrimidin-4-yl)-1H-pyrazol-1-yl]propanenitrile]
4 | < 10 nM | >10 | N#CCC(CN1CCN(C(=O)c2ccc(C#N)cc2F)CC1)n1cc(-c2ncnc3[nH]ccc23)cn1 (centres unmarked) [Compound 5, 4-[(4-{3-cyano-2-[4-(7H-pyrrolo[2,3-d]pyrimidin-4-yl)-1H-pyrazol-1-yl]propyl}piperazin-1-yl)carbonyl]-3-fluorobenzonitrile]
5 | < 10 nM | >10 | N#CCC(CN1CCN(C(=O)c2ccc(C#N)cc2F)CC1)n1ccc(-c2ncnc3[nH]ccc23)c1 (centres unmarked) [Compound 6, 4-[(4-{3-cyano-2-[3-(7H-pyrrolo[2,3-d]pyrimidin-4-yl)-1H-pyrrol-1-yl]propyl}piperazin-1-yl)carbonyl]-3-fluorobenzonitrile]
6 | < 10 nM | >10 | N#CCC1(n2cc(-c3ncnc4[nH]ccc34)cn2)CN(C2CCN(C(=O)c3ccnc(C(F)(F)F)c3F)CC2)C1 [Compound 7, {1-{1-[3-Fluoro-2-(trifluoromethyl)isonicotinoyl]piperidin-4-yl}-3-[4-(7H-pyrrolo[2,3-d]pyrimidin-4-yl)-1H-pyrazol-1-yl]azetidin-3-yl}acetonitrile]
7 | < 10 nM | >10 | N#CCC1(n2cc(-c3ncnc4[nH]ccc34)cn2)CN(C2CCN(C(=O)Nc3ccc(F)cc3C(F)(F)F)CC2)C1 [Compound 8, 4-{3-(Cyanomethyl)-3-[4-(7H-pyrrolo[2,3-d]pyrimidin-4-yl)-1H-pyrazol-1-yl]azetidin-1-yl}-N-[4-fluoro-2-(trifluoromethyl)phenyl]piperidine-1-carboxamide]
8 | < 10 nM | >10 | N#CCC1(n2cc(-c3ncnc4[nH]ccc34)cn2)CN(C2CCN(C(=O)c3ccnc(C(F)(F)F)n3)CC2)C1 [Compound 9, [3-[4-(7H-pyrrolo[2,3-d]pyrimidin-4-yl)-1H-pyrazol-1-yl]-1-(1-{[2-(trifluoromethyl)pyrimidin-4-yl]carbonyl}piperidin-4-yl)azetidin-3-yl]acetonitrile]
9 | < 10 nM | >10 | N#CC[C@]1(n2cc(-c3ncnc4[nH]ccc34)cn2)C[C@H](N2CCN(C(=O)c3ccnc(C(F)(F)F)n3)CC2)C1 [Compound 10, [trans-1-[4-(7H-pyrrolo[2,3-d]pyrimidin-4-yl)-1H-pyrazol-1-yl]-3-(4-{[2-(trifluoromethyl)pyrimidin-4-yl]carbonyl}piperazin-1-yl)cyclobutyl]acetonitrile]
10 | < 10 nM | >10 | N#CC[C@]1(n2cc(-c3ncnc4[nH]ccc34)cn2)C[C@H](N2CCC(Oc3cc(CN4CC(O)C4)cc(C(F)(F)F)n3)CC2)C1 [Compound 11, {trans-3-(4-{[4-[(3-hydroxyazetidin-1-yl)methyl]-6-(trifluoromethyl)pyridin-2-yl]oxy}piperidin-1-yl)-1-[4-(7H-pyrrolo[2,3-d]pyrimidin-4-yl)-1H-pyrazol-1-yl]cyclobutyl}acetonitrile]
11 | < 10 nM | >10 | N#CC[C@]1(n2cc(-c3ncnc4[nH]ccc34)cn2)C[C@H](N2CCC(Oc3cc(CN4CCC[C@H]4CO)cc(C(F)(F)F)n3)CC2)C1 [Compound 12, {trans-3-(4-{[4-{[(2S)-2-(hydroxymethyl)pyrrolidin-1-yl]methyl}-6-(trifluoromethyl)pyridin-2-yl]oxy}piperidin-1-yl)-1-[4-(7H-pyrrolo[2,3-d]pyrimidin-4-yl)-1H-pyrazol-1-yl]cyclobutyl}acetonitrile]
12 | < 10 nM | >10 | N#CC[C@]1(n2cc(-c3ncnc4[nH]ccc34)cn2)C[C@H](N2CCC(Oc3cc(CN4CCC[C@@H]4CO)cc(C(F)(F)F)n3)CC2)C1 [Compound 13, {trans-3-(4-{[4-{[(2R)-2-(hydroxymethyl)pyrrolidin-1-yl]methyl}-6-(trifluoromethyl)pyridin-2-yl]oxy}piperidin-1-yl)-1-[4-(7H-pyrrolo[2,3-d]pyrimidin-4-yl)-1H-pyrazol-1-yl]cyclobutyl}acetonitrile]
13 | < 10 nM | >10 | C[C@H](NC(=O)c1cc(F)c(N2CC(CC#N)(n3cc(-c4ncnc5[nH]ccc45)cn3)C2)cc1F)C(F)(F)F [Compound 16, 4-{3-(cyanomethyl)-3-[4-(7H-pyrrolo[2,3-d]pyrimidin-4-yl)-1H-pyrazol-1-yl]azetidin-1-yl}-2,5-difluoro-N-[(1S)-2,2,2-trifluoro-1-methylethyl]benzamide]
14 | < 10 nM | >10 | N#CCC1(n2cc(-c3ncnc4[nH]ccc34)cn2)CN([C@H]2CC[C@@H](Oc3cc(CCO)nc(C(F)(F)F)n3)CC2)C1 [Compound 18, {1-(cis-4-{[6-(2-hydroxyethyl)-2-(trifluoromethyl)pyrimidin-4-yl]oxy}cyclohexyl)-3-[4-(7H-pyrrolo[2,3-d]pyrimidin-4-yl)-1H-pyrazol-1-yl]azetidin-3-yl}acetonitrile]
15 | < 10 nM | >10 | CCNCc1cc(O[C@H]2CC[C@@H](N3CC(CC#N)(n4cc(-c5ncnc6[nH]ccc56)cn4)C3)CC2)nc(C(F)(F)F)c1 [Compound 19, {1-(cis-4-{[4-[(ethylamino)methyl]-6-(trifluoromethyl)pyridin-2-yl]oxy}cyclohexyl)-3-[4-(7H-pyrrolo[2,3-d]pyrimidin-4-yl)-1H-pyrazol-1-yl]azetidin-3-yl}acetonitrile]
16 | < 10 nM | >10 | CC(C)(O)c1cc(O[C@H]2CC[C@@H](N3CC(CC#N)(n4cc(-c5ncnc6[nH]ccc56)cn4)C3)CC2)nc(C(F)(F)F)c1 [Compound 20, {1-(cis-4-{[4-(1-hydroxy-1-methylethyl)-6-(trifluoromethyl)pyridin-2-yl]oxy}cyclohexyl)-3-[4-(7H-pyrrolo[2,3-d]pyrimidin-4-yl)-1H-pyrazol-1-yl]azetidin-3-yl}acetonitrile]
17 | < 10 nM | >10 | N#CCC1(n2cc(-c3ncnc4[nH]ccc34)cn2)CN([C@H]2CC[C@@H](Oc3cc(CN4CC[C@@H](O)C4)cc(C(F)(F)F)n3)CC2)C1 [Compound 21, {1-(cis-4-{[4-{[(3R)-3-hydroxypyrrolidin-1-yl]methyl}-6-(trifluoromethyl)pyridin-2-yl]oxy}cyclohexyl)-3-[4-(7H-pyrrolo[2,3-d]pyrimidin-4-yl)-1H-pyrazol-1-yl]azetidin-3-yl}acetonitrile]
18 | < 10 nM | >10 | N#CCC1(n2cc(-c3ncnc4[nH]ccc34)cn2)CN([C@H]2CC[C@@H](Oc3cc(CN4CC[C@H](O)C4)cc(C(F)(F)F)n3)CC2)C1 [Compound 22, {1-(cis-4-{[4-{[(3S)-3-hydroxypyrrolidin-1-yl]methyl}-6-(trifluoromethyl)pyridin-2-yl]oxy}cyclohexyl)-3-[4-(7H-pyrrolo[2,3-d]pyrimidin-4-yl)-1H-pyrazol-1-yl]azetidin-3-yl}acetonitrile]
19 | < 10 nM | >10 | C[C@@H](CO)NCc1cc(OC2CCN([C@H]3C[C@](CC#N)(n4cc(-c5ncnc6[nH]ccc56)cn4)C3)CC2)nc(C(F)(F)F)c1 [Compound 23, {trans-3-(4-{[4-({[(1S)-2-hydroxy-1-methylethyl]amino}methyl)-6-(trifluoromethyl)pyridin-2-yl]oxy}piperidin-1-yl)-1-[4-(7H-pyrrolo[2,3-d]pyrimidin-4-yl)-1H-pyrazol-1-yl]cyclobutyl}acetonitrile]
20 | < 10 nM | >10 | C[C@@H](O)CNCc1cc(OC2CCN([C@H]3C[C@](CC#N)(n4cc(-c5ncnc6[nH]ccc56)cn4)C3)CC2)nc(C(F)(F)F)c1 [Compound 24, {trans-3-(4-{[4-({[(2R)-2-hydroxypropyl]amino}methyl)-6-(trifluoromethyl)pyridin-2-yl]oxy}piperidin-1-yl)1-[4-(7H-pyrrolo[2,3-d]pyrimidin-4-yl)-1H-pyrazol-1-yl]cyclobutyl}acetonitrile]
21 | < 10 nM | >10 | C[C@H](O)CNCc1cc(OC2CCN([C@H]3C[C@](CC#N)(n4cc(-c5ncnc6[nH]ccc56)cn4)C3)CC2)nc(C(F)(F)F)c1 [Compound 25, {trans-3-(4-{[4-({[(2S)-2-hydroxypropyl]amino}methyl)-6-(trifluoromethyl)pyridin-2-yl]oxy}piperidin-1-yl)-1-[4-(7H-pyrrolo[2,3-d]pyrimidin-4-yl)-1H-pyrazol-1-yl]cyclobutyl}acetonitrile]
22 | < 10 nM | >10 | N#CC[C@]1(n2cc(-c3ncnc4[nH]ccc34)cn2)C[C@H](N2CCC(Oc3cc(CCO)cc(C(F)(F)F)n3)CC2)C1 [Compound 26, {trans-3-(4-{[4-(2-hydroxyethyl)-6-(trifluoromethyl)pyridin-2-yl]oxy}piperidin-1-yl)-1-[4-(7H-pyrrolo[2,3-d]pyrimidin-4-yl)-1H-pyrazol-1-yl]cyclobutyl}acetonitrile]
